≈ marks a conversion by molar mass, not a printed value.
How the values were obtained:
[1] = test system: Mycobacterium tuberculosis; assay: Antimycobacterial activity against Mycobacterium tuberculosis H37Rv infected in BALB/c mouse assessed as reduction in colony forming unit in lung at 25 mg/kg, po administered once daily for 5 days a week for 3 weeks; assay type: functional
[2] = test system: Mycobacterium tuberculosis; assay: Antimycobacterial activity against Mycobacterium tuberculosis H37Rv ATCC 27294 assessed as reduction in bacterial cell viability incubated for 7 days by microplate alamar blue assay; assay type: functional; settings: H37Rv ATCC 27294, 168 h
hERG (KCNH2) = hERG (KCNH2) (Homo sapiens, UniProt Q12809); assay: Inhibition of human ERG transfected in HEK293 cells at 10 uM by whole cell patch clamp assay relative to control; assay type: cell-based; settings: HEK293 cells transfected with human ERG
Sequence of hERG (KCNH2) (Q12809 whole entry): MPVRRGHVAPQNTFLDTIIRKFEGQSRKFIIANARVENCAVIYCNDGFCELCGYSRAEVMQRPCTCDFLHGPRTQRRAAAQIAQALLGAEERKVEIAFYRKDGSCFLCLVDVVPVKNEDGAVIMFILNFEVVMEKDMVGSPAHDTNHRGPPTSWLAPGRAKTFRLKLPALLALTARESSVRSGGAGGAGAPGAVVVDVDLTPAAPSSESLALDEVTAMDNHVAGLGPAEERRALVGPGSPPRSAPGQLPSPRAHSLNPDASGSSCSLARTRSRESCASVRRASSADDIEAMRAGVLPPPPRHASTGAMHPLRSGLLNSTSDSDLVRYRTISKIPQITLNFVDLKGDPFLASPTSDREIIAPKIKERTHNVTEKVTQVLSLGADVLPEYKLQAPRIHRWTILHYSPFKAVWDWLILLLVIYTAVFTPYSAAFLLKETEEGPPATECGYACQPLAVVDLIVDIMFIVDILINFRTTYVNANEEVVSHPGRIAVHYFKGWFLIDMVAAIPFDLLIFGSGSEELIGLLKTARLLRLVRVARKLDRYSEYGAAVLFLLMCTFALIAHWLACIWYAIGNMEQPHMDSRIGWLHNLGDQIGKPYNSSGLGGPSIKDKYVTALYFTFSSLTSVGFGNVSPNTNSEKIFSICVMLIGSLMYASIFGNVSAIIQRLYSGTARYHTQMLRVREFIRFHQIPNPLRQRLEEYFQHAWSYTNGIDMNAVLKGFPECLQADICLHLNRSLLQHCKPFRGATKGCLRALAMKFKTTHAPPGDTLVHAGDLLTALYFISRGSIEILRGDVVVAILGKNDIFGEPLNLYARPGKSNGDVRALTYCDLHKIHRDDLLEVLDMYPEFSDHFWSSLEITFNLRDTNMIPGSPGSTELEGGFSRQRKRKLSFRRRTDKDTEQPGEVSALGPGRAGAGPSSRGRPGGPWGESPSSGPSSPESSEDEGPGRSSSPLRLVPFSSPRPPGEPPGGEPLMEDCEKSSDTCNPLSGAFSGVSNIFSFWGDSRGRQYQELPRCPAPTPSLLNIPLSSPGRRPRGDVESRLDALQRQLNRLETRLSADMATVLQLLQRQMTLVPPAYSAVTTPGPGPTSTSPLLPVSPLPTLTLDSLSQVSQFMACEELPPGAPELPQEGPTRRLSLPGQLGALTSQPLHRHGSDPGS

[3] = Acute toxicity in ICR mouse assessed as mouse survival at 500 mg/kg, po observed continuously for 4 hrs and each hr for next 24 hrs and at 8 hrs interval for following 7 days; assay type: organism-based; settings: in vivo
[4] = Half life in SPF ICR mouse at 25 mg/kg, po measured upto 24 hrs by HPLC analysis; assay type: ADME, organism-based; settings: in vivo
[5] = Tmax in SPF ICR mouse at 25 mg/kg, po measured upto 24 hrs by HPLC analysis; assay type: ADME, organism-based; settings: in vivo
[6] = Cmax in SPF ICR mouse at 25 mg/kg, po measured upto 24 hrs by HPLC analysis; assay type: ADME, organism-based; design: dose 25 mg/kg, route oral; settings: in vivo
[7] = AUC (0 to t) in SPF ICR mouse at 25 mg/kg, po measured upto 24 hrs by HPLC analysis; assay type: ADME, organism-based; design: dose 25 mg/kg, time < 24 hr, route oral; settings: in vivo

SMILES	MIC [2]	inhibition at 10 µM (hERG (KCNH2))	also measured
O=c1nc(N2CCC3(CCN(Cc4ccc(F)cc4)C3)CC2)sc2c([N+](=O)[O-])cc(C(F)(F)F)cc12	< 0.035 µM	95.7%	Activity [1]: 3.2 log10CFU
O=c1nc(N2CCC3(CCN(Cc4ccc(Br)cc4)CC3)CC2)sc2c([N+](=O)[O-])cc(C(F)(F)F)cc12	< 0.035 µM	97%	–
O=c1nc(N2CCC3(CCN(Cc4ccc(C(F)(F)F)cc4)CC3)CC2)sc2c([N+](=O)[O-])cc(C(F)(F)F)cc12	< 0.035 µM	94.6%	–
O=c1nc(N2CC3CCC2CN3Cc2ccc(F)cc2)sc2c([N+](=O)[O-])cc(C(F)(F)F)cc12 (centres undefined)	0.078 µM (≈ 0.0386 µg/mL)	34.9%	Activity [3]: Non-Toxic; half-life [4]: 75 min; Tmax [5]: 15 min; Cmax [6]: 3040 ng/mL; AUC(0-t) at 24 h [7]: 3550 ng·h/mL
O=c1nc(N2CCC3(CCN(CCc4ccc(F)cc4)C3)CC2)sc2c([N+](=O)[O-])cc(C(F)(F)F)cc12	0.055 µM (≈ 0.0295 µg/mL)	92.7%	–
O=c1nc(N2CCC3(CCN(Cc4ccncc4)C3)CC2)sc2c([N+](=O)[O-])cc(C(F)(F)F)cc12	0.122 µM (≈ 0.0617 µg/mL)	74.1%	–
O=c1nc(N2CCC3(CCN(Cc4cccc(F)c4F)C3)CC2)sc2c([N+](=O)[O-])cc(C(F)(F)F)cc12	< 0.035 µM	88.5%	–
Cn1cccc1CN1CCC2(CCN(c3nc(=O)c4cc(C(F)(F)F)cc([N+](=O)[O-])c4s3)CC2)C1	0.479 µM (≈ 0.243 µg/mL)	–	–
O=c1nc(N2CCC3(CCN(CCCc4ccc(F)cc4)C3)CC2)sc2c([N+](=O)[O-])cc(C(F)(F)F)cc12	< 0.035 µM	85.8%	–
O=c1nc(N2CCC3(CCN(Cc4ccc([N+](=O)[O-])cc4)C3)CC2)sc2c([N+](=O)[O-])cc(C(F)(F)F)cc12	< 0.035 µM	94.1%	–
COc1ccc2[nH]cc(CN3CCC4(CCN(c5nc(=O)c6cc(C(F)(F)F)cc([N+](=O)[O-])c6s5)CC4)C3)c2c1	1.48 µM (≈ 0.848 µg/mL)	–	–
O=c1nc(N2CCC3(CCN(Cc4ccccc4F)C3)CC2)sc2c([N+](=O)[O-])cc(C(F)(F)F)cc12	< 0.035 µM	94.9%	–
N#Cc1ccc(CN2CCC3(CCN(c4nc(=O)c5cc(C(F)(F)F)cc([N+](=O)[O-])c5s4)CC3)C2)cc1	< 0.035 µM	90.6%	–
O=c1nc(N2CCC3(CCN(Cc4cc(C(F)(F)F)cc(C(F)(F)F)c4)C3)CC2)sc2c([N+](=O)[O-])cc(C(F)(F)F)cc12	< 0.035 µM	83.3%	–
O=c1nc(N2CCC3(CCN(Cc4cccnc4)C3)CC2)sc2c([N+](=O)[O-])cc(C(F)(F)F)cc12	0.235 µM (≈ 0.119 µg/mL)	–	–
O=c1nc(N2CCC3(CCN(Cc4ccc([N+](=O)[O-])c(Br)c4)C3)CC2)sc2c([N+](=O)[O-])cc(C(F)(F)F)cc12	< 0.035 µM	88.6%	–
O=c1nc(N2CCC3(CCN(Cc4cccs4)C3)CC2)sc2c([N+](=O)[O-])cc(C(F)(F)F)cc12	< 0.035 µM	96.2%	–
O=c1nc(N2CCC3(CCN(c4ccc(F)cc4)C3)CC2)sc2c([N+](=O)[O-])cc(C(F)(F)F)cc12	< 0.035 µM	23%	Activity [3]: Non-Toxic; half-life [4]: 287 min; Tmax [5]: 30 min; Cmax [6]: 1610 ng/mL; AUC(0-t) at 24 h [7]: 5030 ng·h/mL

SMILES	MIC [2]	inhibition at 10 µM (hERG (KCNH2))	also measured
CC(c1ccc(F)cc1)N1CCC2(CCN(c3nc(=O)c4cc(C(F)(F)F)cc([N+](=O)[O-])c4s3)CC2)CC1 (centres undefined)	0.107 µM (≈ 0.0589 µg/mL)	74%	–
O=c1nc(N2CC3CC2CN3Cc2ccc(F)cc2)sc2c([N+](=O)[O-])cc(C(F)(F)F)cc12 (centres undefined)	< 0.035 µM	94.3%	–
O=c1nc(N2CCC3(CCN(Cc4ccc5ccccc5c4)C3)CC2)sc2c([N+](=O)[O-])cc(C(F)(F)F)cc12	< 0.035 µM	78.1%	–
CC(c1ccc(Br)cc1)N1CCC2(CCN(c3nc(=O)c4cc(C(F)(F)F)cc([N+](=O)[O-])c4s3)CC2)CC1 (centres undefined)	< 0.035 µM	77.2%	–
O=c1nc(N2CCC3(CCN(Cc4cccc5ccccc45)C3)CC2)sc2c([N+](=O)[O-])cc(C(F)(F)F)cc12	0.055 µM (≈ 0.0305 µg/mL)	–	–
CC(c1ccc(Cl)cc1)N1CCC2(CCN(c3nc(=O)c4cc(C(F)(F)F)cc([N+](=O)[O-])c4s3)CC2)CC1 (centres undefined)	< 0.035 µM	73.4%	–
O=c1nc(N2CC3CN(Cc4ccc(F)cc4)CC3C2)sc2c([N+](=O)[O-])cc(C(F)(F)F)cc12 (centres undefined)	0.248 µM (≈ 0.123 µg/mL)	–	–
O=c1nc(N2CCC3(CCN(Cc4ccc[nH]4)C3)CC2)sc2c([N+](=O)[O-])cc(C(F)(F)F)cc12	1.58 µM (≈ 0.778 µg/mL)	–	–
CCC(c1ccc(C(F)(F)F)cc1)N1CCC2(CCN(c3nc(=O)c4cc(C(F)(F)F)cc([N+](=O)[O-])c4s3)CC2)CC1 (centres undefined)	< 0.035 µM	69.7%	–
O=c1nc(N2CCC3(CCN(Cc4ccccn4)C3)CC2)sc2c([N+](=O)[O-])cc(C(F)(F)F)cc12	0.477 µM (≈ 0.241 µg/mL)	–	–
O=c1nc(N2CCC3(CCN(Cc4ccc(OC(F)(F)F)cc4)C3)CC2)sc2c([N+](=O)[O-])cc(C(F)(F)F)cc12	< 0.035 µM	90.2%	–
CC(c1ccc(C(F)(F)F)cc1)N1CCC2(CCN(c3nc(=O)c4cc(C(F)(F)F)cc([N+](=O)[O-])c4s3)CC2)CC1 (centres undefined)	< 0.035 µM	72.9%	–
O=c1nc(N2CCC3(CCN(Cc4ccc(C(F)(F)F)cc4C(F)(F)F)C3)CC2)sc2c([N+](=O)[O-])cc(C(F)(F)F)cc12	< 0.035 µM	68.6%	–
O=c1nc(N2CCC3(CCN(Cc4ncco4)C3)CC2)sc2c([N+](=O)[O-])cc(C(F)(F)F)cc12	0.248 µM (≈ 0.123 µg/mL)	53.2%	–
O=c1nc(N2CCN(C3CCN(Cc4ccc(F)cc4)CC3)CC2)sc2c([N+](=O)[O-])cc(C(F)(F)F)cc12	0.054 µM (≈ 0.0298 µg/mL)	95.6%	–
NNC(=O)c1ccncc1 [ISONIAZID]	0.269 µM (≈ 0.0369 µg/mL)	–	–
O=c1nc(N2CCN(CC3CCCCC3)CC2)sc2c([N+](=O)[O-])cc(C(F)(F)F)cc12 [MACOZINONE]	< 0.035 µM	41.6%	Activity [3]: Non-Toxic; half-life [4]: 380 min; Tmax [5]: 19.8 min; Cmax [6]: 1750 ng/mL; AUC(0-t) at 24 h [7]: 2480 ng·h/mL
CO[C@H]1/C=C/O[C@@]2(C)Oc3c(C)c(O)c4c(O)c(c(/C=N/N5CCN(C)CC5)c(O)c4c3C2=O)NC(=O)/C(C)=C\C=C\[C@H](C)[C@H](O)[C@@H](C)[C@@H](O)[C@@H](C)[C@H](OC(C)=O)[C@@H]1C [RIFAMPIN]	0.164 µM (≈ 0.135 µg/mL)	–	–

From ChEMBL document CHEMBL4351009, “hERG optimizations of IMB1603, discovery of alternative benzothiazinones as new antitubercular agents” (Eur J Med Chem, 2019)
